Data from ChEMBL document CHEMBL5303304, “EUbOPEN Chemogenomics Library - IncuCyte” (2023).

Key:
Type in all cases: toxicity, cell-based
U2OS = assay: Incucyte cell viability with U2OS; details: human, 10 µM, compound concentration 10 uM
Fibroblast = assay: Incucyte cell viability with human fibroblast; details: 10 µM, compound concentration 10 uM
HEK-293T = assay: Incucyte cell viability with HEK293T; details: human, 10 µM, compound concentration 10 uM
Note: unitless GR value; below 1 slowed growth and below 0 cell loss.

Row | Structure (SMILES) | Growth Rate (U2OS; 0 h, replicate number 1) | Growth Rate (U2OS; 24 h, replicate number 2) | Growth Rate (Fibroblast; 6 h, replicate number 2) | Growth Rate (Fibroblast; 12 h, replicate number 2) | Growth Rate (Fibroblast; 18 h, replicate number 2) | Growth Rate (Fibroblast; 24 h, replicate number 2) | Growth Rate (HEK-293T; 6 h, replicate number 1) | Growth Rate (HEK-293T; 6 h, replicate number 2) | Growth Rate (HEK-293T; 12 h, replicate number 1) | Growth Rate (HEK-293T; 12 h, replicate number 2) | Growth Rate (HEK-293T; 18 h, replicate number 1) | Growth Rate (HEK-293T; 18 h, replicate number 2) | Growth Rate (HEK-293T; 24 h, replicate number 1) | Growth Rate (HEK-293T; 24 h, replicate number 2) | Growth Rate (U2OS; 0 h, replicate number 2) | Growth Rate (U2OS; 6 h, replicate number 1) | Growth Rate (U2OS; 18 h, replicate number 2) | Growth Rate (Fibroblast; 0 h, replicate number 2) | Growth Rate (HEK-293T; 0 h, replicate number 2) | Growth Rate (U2OS; 12 h, replicate number 2) | other results
1 | CNC(=O)c1c[nH]c2ccc(Nc3nccc(-c4ccccn4)n3)cc12 | 0.13 | 0.94 | 0.18 | 0.41 | 0.6 | 0.75 | 0.28 | 0.09 | 0.33 | 0.1 | 0.33 | 0.14 | 0.39 | 0.17 | – | – | – | – | – | – | Growth Rate (U2OS; 18 h, replicate number 1): 0.95; Growth Rate (Fibroblast; 0 h, replicate number 1): -1; Growth Rate (Fibroblast; 12 h, replicate number 1): 0.8
2 | COc1cc(N)c(Cl)cc1C(=O)NC1CN2CCC1CC2.Cl (stereo not drawn) | – | – | -0.28 | – | – | – | -0.18 | -0.12 | 0.31 | 0.19 | 0.18 | 0.29 | 0.31 | 0.38 | -0.2 | 0.67 | 1 | -0.73 | – | – | Growth Rate (U2OS; 6 h, replicate number 2): 0.95; Growth Rate (U2OS; 12 h, replicate number 1): 0.95; Growth Rate (Fibroblast; 6 h, replicate number 1): -0.82; Growth Rate (Fibroblast; 12 h, replicate number 1): 0.48
3 | Cc1nnc2n1-c1sc3c(c1C(c1ccccc1Cl)=NC2)C[C@@H](C(=O)N1CCOCC1)C3 | 0.65 | – | – | 0.81 | – | 0.86 | – | – | – | – | – | – | – | – | – | 0.49 | – | – | -0.7 | – | Growth Rate (U2OS; 12 h, replicate number 1): 0.84; Growth Rate (HEK-293T; 0 h, replicate number 1): -0.21
4 | CC(C)(C)c1ccc2c(c1)CC[C@H]2NC(=O)Nc1cccc2[nH]ncc12 [ABT-102] | – | 0.9 | – | – | – | – | 0.75 | 0.6 | 0.26 | 0.71 | 0.39 | 0.54 | 0.22 | 0.48 | -0.93 | – | 0.91 | 0.41 | 1 | 0.84 | Growth Rate (Fibroblast; 0 h, replicate number 1): 0.1; Growth Rate (Fibroblast; 12 h, replicate number 1): -0.95; Growth Rate (Fibroblast; 24 h, replicate number 1): 0.79
5 | CC(=O)N1CCN(c2ccc(OCC3COC(Cn4ccnc4)(c4ccc(Cl)cc4Cl)O3)cc2)CC1 (stereo not drawn) [KETOCONAZOLE] | – | – | – | – | 0.96 | 0.89 | -0.34 | -0.16 | 0.05 | 0.03 | 0.34 | 0.32 | 0.6 | 0.38 | -0.98 | 0.7 | 0.99 | -0.79 | – | 0.63 | Growth Rate (U2OS; 6 h, replicate number 2): 0.94; Growth Rate (Fibroblast; 6 h, replicate number 1): 0.47; Growth Rate (Fibroblast; 12 h, replicate number 1): -1
6 | CCc1nc(-c2cccc(C)c2)c(-c2ccnc(NC(=O)c3ccccc3)c2)s1 [TAK-715] | -1 | 0.92 | 0.83 | – | – | – | 0.48 | 0.96 | – | – | – | – | 0.92 | 0.81 | 0.2 | 0.63 | 0.87 | – | – | 0.79 | Growth Rate (U2OS; 18 h, replicate number 1): -0.35; Growth Rate (Fibroblast; 0 h, replicate number 1): -0.56
7 | COCCN1CCN(CCn2ccc(Nc3ncc4c(n3)-c3c(nn(C)c3-c3ccccc3)C[C@H]4C)n2)CC1 | – | 0.5 | 0.5 | 0.24 | 0.31 | 0.41 | -0.53 | -0.51 | -0.36 | -0.33 | -0.28 | -0.32 | -0.17 | -0.22 | – | 0.91 | -0.83 | 0.9 | – | -0.9 | Growth Rate (U2OS; 6 h, replicate number 2): 0.25; Growth Rate (U2OS; 12 h, replicate number 1): -0.73; Growth Rate (U2OS; 18 h, replicate number 1): 0.7; Growth Rate (U2OS; 24 h, replicate number 1): 0.85; Growth Rate (Fibroblast; 6 h, replicate number 1): 0.35; Growth Rate (Fibroblast; 12 h, replicate number 1): 0.47; Growth Rate (Fibroblast; 18 h, replicate number 1): 0.37; Growth Rate (Fibroblast; 24 h, replicate number 1): 0.52
8 | CN1Cc2nccc(-c3cn(C)nc3-c3ccc(F)cc3)c2C1=O.Cl | 0.53 | – | – | – | – | – | – | – | – | – | – | – | – | – | 0.96 | – | – | 0.28 | 0.69 | – | Growth Rate (U2OS; 18 h, replicate number 1): 0.99; Growth Rate (HEK-293T; 0 h, replicate number 1): -0.38
9 | Cn1ncnc1COc1nn2c(-c3cc(F)ccc3F)nnc2cc1C(C)(C)C | – | 0.76 | – | 0.29 | 0.56 | 0.57 | – | 0.37 | 0.42 | 0.63 | 0.42 | 0.77 | 0.28 | 0.88 | – | 0.51 | 0.76 | – | 0.38 | 0.78 | Growth Rate (Fibroblast; 0 h, replicate number 1): 0.93
10 | Cc1nnc2n1-c1sc3c(c1C(c1ccccc1Cl)=NC2)C[C@H](C(=O)N1CCOCC1)C3 | – | 0.93 | -0.71 | 0.19 | 0.64 | 0.94 | 0.78 | – | – | – | – | – | – | – | – | 0.8 | 0.93 | – | -0.35 | 0.83 | Growth Rate (U2OS; 24 h, replicate number 1): 0.94; Growth Rate (HEK-293T; 0 h, replicate number 1): -0.2
11 | O=C1Nc2nc(-c3c(O)cccc3OCC3CC3)cc([C@@H]3CCCNC3)c2CO1 | – | 0.98 | – | – | – | – | 0.72 | 0.83 | 0.62 | 0.47 | 0.78 | – | 0.93 | – | -0.52 | – | 0.79 | -0.79 | -0.36 | 0.47 | Growth Rate (U2OS; 6 h, replicate number 2): 0.44; Growth Rate (U2OS; 24 h, replicate number 1): 0.83; Growth Rate (HEK-293T; 0 h, replicate number 1): 0.88
12 | Cc1c(CCC(=O)O)cccc1NC(=O)[C@@H](c1ccc(-c2cncc(Cl)c2)c(F)c1)C1CCCC1 | 0.68 | – | -0.66 | 0.3 | 0.9 | 0.87 | – | 0.98 | – | – | – | – | – | – | – | 0.95 | – | – | -0.54 | – | Growth Rate (U2OS; 12 h, replicate number 1): 0.73; Growth Rate (HEK-293T; 0 h, replicate number 1): -0.19
